# Columns and labels:
# Assay type in all cases: cell-based
# Salmonella [1] = assay: Inclusivity: culture of pure Salmonella serovars in BPW with selective agent or supplement, ELISA detection (FIG. 4, FIG. 6); details: 5 mg/L 4PYcq; 20 hour culture; same inoculums of pure Salmonella cultures
# Description: FIG. 4 illustrates inclusivity study data where multiple Salmonella serovars were artificially inoculated into either Buffered Peptone Water (BPW) on its own, or BPW enriched with either a selective cefsulodin, novobiocin, brilliant green lyophilised supplement run in the absence or presence of an oatmeal food matrix; or a selective cefsulodin, novobiocin, 4PYcq lyophilised supplement run in the absence of an oatmeal food matrix.
# FIG. 6 illustrates inclusivity study data where multiple Salmonella serovars were artificially inoculated into BPW enriched with a selective cefsulodin, novobiocin, 4PYcq lyophilised supplement at low levels.
# competing microflora = assay: Suppression of competing microflora in cultures of sample types; details: 5 mg/L; range of sample types, including dairy and probiotic foods
# Salmonella [2] = assay: Recovery and detection of Salmonella from spices, herbs and flavourings, single step culture (FIGS. 9-13); details: spices/flavourings from the allium family; FIG. 13
# Description: This was at fractional inoculation level (2-8 cfu). Accordingly a method with the ‘Spice neutraliser’ supplement is capable of detecting Salmonella from spice/herb/flavouring samples, even when the Salmonella is present at fractional levels.
# This was at a high inoculation level (40-92 cfu).
# The data provided in FIGS. 9A and 9B are derived from samples that were inoculated with a relatively high level of Salmonella (FIG. 9A—77-114cfu; FIG. 9B—38 cfu).
# FIG. 10 provides data derived from fractional inoculation levels (2-8 cfu). In this instance the cells are cultured in the 4PYcq/Cefsulodin/Novobiocin supplement at half the concentration of that used previously, i.e. at a working concentration of 2.5 mg/L 4PYcq, 4 mg/L Cefsulodin and 5 mg/L Novobiocin.
structure (smiles),measurement,setting,value
CC(C)(C)c1cc(/C=N/N=C(\N)c2ccncc2)c(O)c(C(C)(C)C)c1 [4PYcq],identification of Salmonella by ELISA after culture,Salmonella [1],positive identification of the presence of Salmonella
same,suppression of competing microflora,competing microflora,sufficient suppression of competing microflora
"O=S([O-])[O-].[K+].[K+] [potassium salt component, potassium sulphite]",recovery of Salmonella,Salmonella [2],sufficient for recovery of Salmonella

# From patent US20220002663A1, “SELECTIVE SALMONELLA OR E. COLI CULTIVATION METHOD, COMPOSITIONS AND USES” (SOLUS SCIENTIFIC SOLUTIONS LTD, priority 2018, published 2022)
